Assay results taken from patent US4997931A, “Epipodophyllotoxin glycosides” (Bristol-Myers Squibb Company, priority 1990, dated 1991).
Converted amounts (≈) assume the structure as drawn.

Key:
[1] = system: Murine melanoma B16-F10 cells; assay: In vitro cytotoxicity against B16-F10 cells (neutral red staining, 72 hours); assay type: cell-based; settings: Mus musculus, 72 hours incubation, read-out: Cytotoxicity (IC50, μg/ml)
Protocol: Murine melanoma B16-F10 cells were grown and maintained at 37° C. under a humidified atmosphere in a 5% CO2 incubator in Eagle's MEM medium (Nissui) containing kanamycin (60 μg/ml), and supplemented with heat inactivated fetal calf serum (10%) and non-essential amino acids (0.6%). Exponentially growing B16-F10 cells were harvested, counted and suspended in the culture medium at a concentration of 2.0×10^4 cells/ml. Twenty-four hours after planting cell suspension (180 μl) into wells of a 96-well microtiter plate, test materials (20 μl) were added to the wells and the plates were incubated for 72 hours. The cytotoxic activity against B16-F10 cells was colorimetrically determined at 540 nm after staining viable cells with neutral red solution.
(§1) For the in vivo expermient, only the maximum T/C% and the dose giving the maximum value are shown.

murine P388 leukemia = assay: In vivo antitumor activity in the lymphocytic leukemia P388 system; design: species or system mouse (Female CDF1 mice); settings: i.p., once on day 1 (Q1D×1), over 125% significant
Protocol: Antitumor activity of representative compounds of the present invention was tested in the lymphocytic leukemia P388 system. Female CDF1 mice were inoculated intraperitoneally with 1.0×10^6 of leukemia cells per mouse (day 0) and test materials were intraperitoneally administered to mice once on day 1 (Q1D×1). […] The median survival time (MST) of each test group was recorded, and antitumor activity was expressed by means of T/C% values calculated by the following equation:
T/C%=(MST treated.div.MST control)×100
The T/C% values of over 125% are considered significant antitumor activity.
as §1

[2] = 120 mg/kg/Day (dose giving maximum T/C%)
[3] = 60 mg/kg/Day (dose giving maximum T/C%)

COc1cc([C@@H]2c3cc4c(cc3[C@@H](O[C@@H]3O[C@H]([C@H]5COC(C)O5)[C@@H](O)[C@H]3O)[C@H]3COC(=O)[C@H]23)OCO4)cc(OC)c1O (single isomer, unassigned) [Example 2 (epimer I), 4'-demethyl-4-O-(5,6-O-ethylidene-β-D-allofuranosyl)epipodophyllotoxin] was tested, and the IC50 [1] was > 100 µg/mL and the “Anti-P388 T/C % (maximum; MST treated/MST control ×100)” value (murine P388 leukemia; [2]) was 150%.
COc1cc([C@@H]2c3cc4c(cc3[C@@H](O[C@@H]3O[C@H]([C@H]5COC(C)O5)[C@@H](O)[C@H]3O)[C@H]3COC(=O)[C@H]23)OCO4)cc(OC)c1O (single isomer, unassigned) [Example 2 (epimer II), 4'-demethyl-4-O-(5,6-O-ethylidene-β-D-allofuranosyl)epipodophyllotoxin] was tested, and the “Anti-P388 T/C % (maximum; MST treated/MST control ×100)” value (murine P388 leukemia; [3]) was 140%.
COc1cc([C@@H]2c3cc4c(cc3[C@@H](O[C@@H]3O[C@@H]5CO[C@@H](C)O[C@H]5[C@H](O)[C@H]3O)[C@H]3COC(=O)[C@H]23)OCO4)cc(OC)c1O [Etoposide, reference compound] was tested, and the IC50 [1] was 0.21 µg/mL (≈ 0.357 µM) and the “Anti-P388 T/C % (maximum; MST treated/MST control ×100)” value (murine P388 leukemia; [2]) was 288%.
In the case of COc1cc([C@@H]2c3cc4c(cc3[C@@H](O[C@@H]3O[C@@H]5COC(C)O[C@H]5[C@@H](O)[C@H]3O)[C@H]3COC(=O)[C@H]23)OCO4)cc(OC)c1O (stereo partly drawn) [Example 1, 4'-Demethyl-4-O-(4,6-O-ethylidene-β-D-allopyranosyl)epidpodophyllotoxin], the IC50 [1] is reported as 2.1 µg/mL (≈ 3.57 µM) and the “Anti-P388 T/C % (maximum; MST treated/MST control ×100)” value (murine P388 leukemia; [3]) is reported as 280%.
With COc1cc([C@@H]2c3cc4c(cc3[C@@H](O[C@@H]3O[C@@H]5COC(C)O[C@H]5[C@H](O)[C@@H]3O)[C@H]3COC(=O)[C@H]23)OCO4)cc(OC)c1O (stereo partly drawn) [Example 3, 4'-Demethyl-4-O-(4.6-O-ethylidene-β-D-mannopyranosyl)epipodophyllotoxin] the IC50 [1] was 0.12 µg/mL (≈ 0.204 µM) and the “Anti-P388 T/C % (maximum; MST treated/MST control ×100)” value (murine P388 leukemia; 30 mg/kg/Day (dose giving maximum T/C%)) was 186%.
COc1cc([C@@H]2c3cc4c(cc3[C@@H](O[C@H]3O[C@@H]5COC(C)O[C@H]5[C@H](O)[C@@H]3O)[C@H]3COC(=O)[C@H]23)OCO4)cc(OC)c1O (stereo partly drawn) [Example 4, 4'-demethyl-4-O-(4,6-O-ethylidene-α-D-mannopyranosyl)epipodophyllotoxin] was tested, and the IC50 [1] was 19 µg/mL (≈ 32.3 µM) and the “Anti-P388 T/C % (maximum; MST treated/MST control ×100)” value (murine P388 leukemia; 10 mg/kg/Day (dose giving maximum T/C%)) was 124%.
